Patent US20220313651A1, “INHIBITORS OF ZIKA VIRUS INFECTION” (priority 2019, published 2022)

How the values were obtained:
[1] = tested on: ZIKV human strain R116265 (2016/Mexico); assay: Plaque reduction inhibition assay in Vero E6 cells, ZIKV R116265; type: cell-based, Zika virus (ZIKV); conditions: Table 7, gossypol derivatives, read-out: ZIKV strains IC50, R116265
Description: Vero E6 and LLC-MK2 cells were maintained in Dulbecco's Modified Eagle Medium (DMEM) supplemented with 8% fetal bovine serum (FBS) and penicillin and streptomycin (P/S). C6/36 cells were maintained in Eagle's Minimal Essential Medium (EMEM) supplemented with 5% FBS and P/S. ZIKV strains, including human strains PAN2016 (2016/Panama), R116265 (2016/Mexico), PAN2015 (2015/Panama), FLR (2015/Colombia), R103451 (2015/Honduras), PRVABC59 (2015/Puerto Rico), PLCal_ZV (2013/Thailand), and IbH 30656 (1968/Nigeria), mosquito strain MEX 2-81 (2016/Mexico), and rhesus macaque strain MR 766 (1947/Uganda), were used in the studies. These ZIKV strains were cultured in Vero E6 cells, and viral titers were detected by a standard plaque-forming assay. DENV human strains, including type 1: DENV-1-V1792 (2007/Vietnam), type 2: DENV-2-V594 (2006/Puerto Rico), type 3: DENV-3-V1043 (2006/Puerto Rico), and type 4: DENV-4-PR 06-65-740 (2006/Puerto Rico), were cultured in C6/36 cells, and the viral titers were determined by plaque-forming assay as described above.
A plaque reduction inhibition assay was carried out to measure the inhibitory activity of Z-medicaments against infections of ZIKV and DENV. […] The compound-virus mixtures were then transferred to Vero E6 cells (10^5/well) and incubated at 37° C. for 1 h. […] The cells were washed thoroughly with PBS, and overlaid with DMEM containing 1% carboxymethyl cellulose and 2% FBS, followed by in vitro culture at 37° C. for 4-5 days and then staining with 0.5% crystal violet.
After removal of the unbound compounds by centrifugation after addition of 3% PEG-6000, ZIKV was incubated with Vero E6 cells at 37° C. for 1 h. The cells were then washed with PBS, overlaid with DMEM containing 1% carboxymethyl cellulose and 2% FBS, and cultured at 37° C. for 4-5 days, followed by staining with 0.5% crystal violet.

[2] = target: T1, ZIKV NS2B-NS3 protein (Zika virus, UniProt Q32ZE1); assay: SPR binding to ZIKV NS2B-NS3 protein; conditions: 1:1 binding model, read-out: Binding affinity (KD) to ZIKV NS2B-NS3 protein
T1 construct: 49-97) and NS2 protein (residues 1-185) through a covalent; made in house; host or cells: E. coli
Method: The interactions between the Z-medicaments and ZIKV full-length E or NS2B-NS3 protease were analyzed at 25° C. using the Biacore T200 system. Briefly, ZIKV E or NS2B-NS3 protein was immobilized on a sensor chip (CM5) using the Amine Coupling Kit. The disclosed Z-medicaments at various concentrations were subsequently injected as analytes, and PBS-P (20 mM phosphate buffer containing 2.7 mM KCl, 137 mM NaCl, and 0.05% surfactant P20, pH 7.4) was used as the running buffer. The data were analyzed using Biacore evaluation software (T200 version 1.0), and the curve was fitted with a 1:1 binding model.
Briefly, ZIKV EDIII protein or NS2B-NS3 protein were immobilized on a sensor chip (CM5) using Amine Coupling Kit. […] Biacore BK evaluation software (version 1.1) was applied to analyze the data, and the curve was fitted with a 1:1 binding model.

[3] = target: T2, binding between ZIKV EDIII and EDI/II-specific mAb ZKA78 (Zika virus, UniProt Q32ZE1, D679E/I627V/V603I/V629A); assay: ELISA competition, control EDI/II-specific mAb ZKA78; conditions: ZKA78 does not bind EDIII
T2 construct: human Fc (C)
Method: ELISA was also used to determine the ability of ST087010 in inhibition of the binding between ZIKV EDIII and EDIII-specific human mAbs (SMZAb5, ZKA64-LALA, ZV-67, or Z004) or EDI/II-specific human mAb (ZKA78) control. […] The plates were then sequentially incubated with HRP-conjugated anti-human IgG-Fab antibody and TMB substrate, followed by detection of A450 values. Percent inhibition (% inhibition) of compounds was calculated based on the ELISA results, and IC50 was obtained […].

[4] = tested on: ZIKV human strain R103451; assay: Protection of Ifnar1-/- mice from lethal ZIKV challenge (survival, weight); type: in vivo; conditions: 20 mg/kg i.p. 12 h before and 6, 24, 48 h after infection; ZIKV R103451 200 PFU/mouse; 21 days
Description: FIG. 8A is a schematic diagram of experimental procedures. […] The treated mice were infected with ZIKV human strain R103451 (200 plaque forming unit (PFU)/mouse), followed by evaluation of survival rate (FIG. 8B) or weight changes (FIG. 8C) for 21 days. The data are expressed as mean±s.e.m. of mice in each group (n=6). In a separate experiment, ST087010 or gossypol-treated mice were infected with ZIKV human strain PAN2016 (200, PFU/mouse). Five days post-infection (dpi), viral titers were detected in tissues by plaque assay (FIG. 8D), and ZIKV or caspase-3 signals were measured in eye (FIG. 8E) and testis ([…]) tissues by immunofluorescence staining. The data are expressed as mean±s.e.m. of mice in each group (n=5), and significant differences among different groups are shown as *, **, and ***. The detection limit is 25 PFU/g. ZIKV and caspase-3 (in FIG. 8E-F) were stained with anti-ZIKV and anti-active caspase-3 antibodies, respectively. Nuclei were stained with DAPI (40,6-diamidino-2-phenylindole). Representative images of immunofluorescence staining are shown. Magnification, 63×, and scale bar, 10 μm.
Adult male (3-4 or 7-8-week-old) and pregnant female (8-12-week-old, E12-14) Ifnar1^−/− mice were used in the study. […]
ST087010 was evaluated for protection against ZIKV infection in ZIKV-susceptible Ifnar1^−/− mice. […]

[5] = tested on: nine additional ZIKV strains; assay: Plaque reduction inhibition assay, nine additional ZIKV strains taken together; type: cell-based; conditions: Zika virus, Vero C1008; range over nine additional strains, Vero E6 cells; read-out: IC50 values against all nine ZIKV strains tested
Method: A plaque reduction inhibition assay was carried out to measure the inhibitory activity of Z-medicaments against infections of ZIKV and DENV. […] The compound-virus mixtures were then transferred to Vero E6 cells (10^5/well) and incubated at 37° C. for 1 h.
The identified Z-medicaments were further studied for their broad-spectrum activity against nine additional ZIKV strains, including those isolated from different hosts, namely humans, mosquitos, and rhesus macaques, at different time periods (1947-2016) in different countries, including Mexico, Panama, Columbia, Honduras, Puerto Rico, Thailand, Nigeria, and Uganda.

Row | SMILES | IC50 [1] | Kd [2] | Effect on binding of EDI/II-specific mAb ZKA78 (control) [3] | Survival (mice protected from death) [4] | Weight changes [4] | IC50 [5]
1 | Cc1cc2c(C(C)C)c(O)c(O)c(/C=N/n3c(=O)[nH][nH]c3=O)c2c(O)c1-c1c(C)cc2c(C(C)C)c(O)c(O)c(/C=N/n3c(=O)[nH][nH]c3=O)c2c1O [ST087010] | 2.91 ± 0.07 µM | 19.9 µM | no observable effect | 50% | slight weight loss during 6-12 dpi | –
2 | Cc1cc2c(C(C)C)c(O)c(O)c(C=O)c2c(O)c1-c1c(C)cc2c(C(C)C)c(O)c(O)c(C=O)c2c1O [Gossypol, gossypol] | – | – | – | – | – | 0.21 to 4.31 µM
